Data on 17 molecules can be found in US5658880A, “Sialic acid/fucose based medicaments” (Glycomed Incorporated, priority 1994, dated 1997).

For one assay, the system named is E-selectin. Kind of assay: ELISA: inhibition of E-selectin-IgG chimera binding to 2,3 sLe^x glycolipid. More on the design: species or system human. The following applies: for IC50: inhibition of binding to 2,3 sLex glycolipid. The source says:
(§1) An ELISA assay is preferably used that employs recombinant fusion proteins composed of extracellular portions of the human selectins joined to human immunoglobulin heavy chain CH3, CH2, and hinge regions. See, for example, Walz et al., Science (1990) 250:1132; Aruffo et al., Cell (1991) 67:35; Aruffo et al., Proc. Natl. Acad. Sci. USA. (1992) 89:2292. The assay is well known in the art, and generally consists of the following three steps:
(§2) I. 2,3 sLe^x glycolipid (25 picomole/well) was transferred into microtiter wells as solutions and then evaporated off. Excess, which remained unattached, was washed off with water. The wells were then blocked with 5% BSA at room temperature for an hour and then washed with PBS containing 1 mM calcium.
(§3) II. Preparation of "multivalent" receptor of the Selectin-lgG chimera was carried out by combining the respective chimera (1 μg/mL) with biotin labelled goat F(ab')2 anti-human IgG (Fc specific) and streptavidin-alkaline phosphatase diluted 1:1000 in 1% BSA-PBS (1 mM calcium) and incubating at 37° C. for 15 min. This allowed the soluble multivalent receptor complex to form. III. Potential inhibitors such as the compounds of formula I or II were allowed to react with the soluble receptor at 37° C. for 45 min. This test assumes that optimal binding, between the soluble phase receptor complex and the inhibitor (non natural ligand), would have occurred within this time frame. This solution was then placed in the microtiter wells that were prepared in step I. The plate was incubated at 37° C. for 45 minutes to allow the soluble receptor to bind to its natural ligand. In the presence of a strong inhibitor only a few receptors should be free to bind to the microtiter plate coated with the natural ligand.
(§4) The positive control is the signal produced by the soluble receptor when it is allowed to react with 2,3 sLe^x glycolipid in the microtiter wells in the absence of any inhibitor. This positive control was considered 100% binding. The signal produced by the receptor that had been previously treated with an inhibitor (recorded as O.D.), was divided by the signal produced by the positive control and multiplied by 100 to calculate the % receptor bound to the well in the presence of the inhibitor. The reciprocal of this number is the % inhibition.
(§5) An ELISA assay was employed that uses recombinant fusion proteins composed of extracellular portions of the human selectins joined to human immunoglobulin heavy chain CH3, CH2, and hinge regions. See, for example, Walz et al., Science (1990) 250:1132; Aruffo et al., Cell (1991) 67:35; Aruffo et al., Proc. Natl. Acad. Sci. USA (1992) 89:2292. The assay is well known in the art, and generally consists of the following three steps:
(§6) II. Preparation of "multivalent" receptor of the Selectin-IgG chimera was carried out by combining the respective chimera 1 μg/ml) with biotin labelled goat F(ab')2 anti-human IgG (Fc specific) and streptavidin-alkaline phosphatase diluted 1:1000 in 1% BSA-PBS (1 mM calcium) and incubating at 37° C. for 15 min. This allowed the soluble multivalent receptor complex to form.
(§7) III. Potential inhibitors such as compounds of formula I or II were allowed to react with the soluble receptor at 37° C. for 45 min. This test assumes that optimal binding, between the soluble phase receptor complex and the inhibitor (non natural ligand), would have occurred within this time frame. This solution was then placed in the microtiter wells that were prepared in step I. The plate was incubated at 37° C. for 45 minutes to allow the soluble receptor to bind to its natural ligand. In the presence of a strong inhibitor only a few receptors should be free to bind to the microtiter plate coated with the natural ligand.
(§8) The positive control is the signal produced by the soluble receptor when it is allowed to react with 2,3 sLe^x glycolipid in the microtiter wells in the absence of any inhibitor. This was considered 100% binding. […]

A further assay has as its system L-selectin. Kind of assay: ELISA: inhibition of L-selectin-IgG chimera binding to 2,3 sLe^x glycolipid. Set-up: species or system human. The following applies: for IC50: inhibition of binding to 2,3 sLex glycolipid; for inhibition of L-selectin binding to 2,3 sLe^x glycolipid: FIG. 5 and FIG. 6, result in words.
From the text: as §1, §2, §3, §4, §5, §6, §7, §8

For assay [1], the system named is P-selectin. The assay is described as follows: ELISA: inhibition of P-selectin-IgG chimera binding to 2,3 sLe^x glycolipid. The following applies: inhibition of binding to 2,3 sLex glycolipid. Set-up: species or system human.
From the text: as §1, §2, §3, §4, §5, §6, §7, §8

For assay [2], the system named is P-selectin. The assay is described as follows: Flow cytometric assay: inhibition of P-selectin-IgG binding to HL-60 cells. It counts as cell-based, human. Set-up: unit of the concentration uncertain. The protocol:
The interaction of P-selectin and its cellular ligand was studied using a flow cytometric assay (Erbe, D. V. et al., J. Cell Biol. (1993) 120:1227). HL60 cells (maintained in high glucose DME plus 10% Hyclone FBS) were used in this assay. Before staining with P-selectin-IgG the cells were preincubated in Dulbecco's PBS/1% BSA/0.1% sodium azide/1% normal rabbit serum (staining medium) for 30-60 mins on ice. After this initial incubation, 1 μg of P-selectin-IgG was added to 100 μl aliquots of 10^6 cells and incubated for 30-60 mins on ice. The cells were when washed with staining medium and resuspended in 100 μl of staining medium to which was added 2 μl of a phycoerythrin-conjugated F(ab')^2 goat anti-human IgG (Fc specific). The cells were incubated for 15-30 mins on ice, washed twice with staining medium, and resuspended in 0.5 ml of staining medium before flow cytometric analysis on a FACScan (Becton Dickinson & Co., Mountain View, Calif.). To determine that the staining was an interaction of P-selectin with its ligand, the staining was also done in the presence of 10 mM EGTA. To determine the protease sensitivity and the requirement for sialic acid of this interaction, HL-60 cells in D-PBS and 1% BSA were incubated with either trypsin or Arthrobacter or Clostridium sialidases at 37° C. before resuspending in staining medium. To examine the ability of various carbohydrates to inhibit staining, 50 μg/ml fucoidin (Sigma Immunochemicals, St. Louis, Mo.), 50 μg/ml dextran sulfate (Pharmacia Fine Chemicals, Piscataway, N.J.), 10 mg/ml mannose-1-phosphate (Sigma Immunochemicals), or 10 mg/ml mannose-6-phosphate (Sigma Immunochemicals) was added to cells immediately before the addition of the P-selectin chimera. Each carbohydrate was then present until the cells were washed before the addition of the second stage antibody. A potential complication of this FACS assay arose from the use of selectin-IgG chimeras to stain cells which bear human IgG Fc receptors (FcγR; Fanger, M. W., et al., Immunol. Today (1989) 10:92). Adding rabbit IgG (in the form of normal rabbit serum) to the assay medium blocked this binding in most cases.

On to `CC(=O)NC1C(O)CC(OC2C(O)C(CO)OC(OCCOC3OC(C)C(O)C(O)C3O)C2O)(C(=O)O)OC1C(O)C(O)CO` [Compound 28, [O-(α-L-fucopyranosyl)-ethyl]3-O-(α-Neu5Ac)-β-D-galactopyranoside], for which the IC50 in the assay on E-selectin is greater than 4 mM.

For the molecule `C[C@@H]1O[C@@H](CCOc2ccc3cc(C(=O)O)ccc3c2)[C@@H](O)[C@H](O)[C@@H]1O` [Compound 51, 1-Deoxy-1-α-(2-Carboxy-Naphthyl-6-Oxyethyl)-L-Fucose], the half-inhibitory concentration (IC50) in the assay on E-selectin was less than 0.5 mM; with L-selectin it was less than 1 mM; with P-selectin [1], less than 0.5 mM.

On to `COc1ccc(-c2c(C(=O)O)oc3cc(OCC[C@@H]4O[C@@H](C)[C@@H](O)[C@@H](O)[C@@H]4O)cc(O)c3c2=O)cc1` [Compound 54, 2-Carboxy-5-Hydroxy-7-(1-Deoxy-1-α-Fucosyl-Ethyleneoxy)-4-Methoxy Isoflavone], for which the IC50 was less than 0.5 mM in the assay with E-selectin, greater than 4 mM with L-selectin and less than 0.5 mM in the assay on P-selectin [1].

As for `C[C@@H]1O[C@@H](CCOc2ccc(C(=O)O)cc2)[C@@H](O)[C@H](O)[C@@H]1O` [Compound 67, 1-Deoxy-1-α-(p-Carboxy-Phenoxyethyl)-L-Fucose], the half-inhibitory concentration (IC50) is less than 0.5 mM in the assay on E-selectin, greater than 2 mM in the assay with L-selectin and less than 0.5 mM in the assay with P-selectin [1].

Regarding `COC(=O)C(C)c1ccc2cc(OCC[C@@H]3O[C@@H](C)[C@@H](OC(C)=O)[C@@H](OC(C)=O)[C@@H]3OC(C)=O)ccc2c1` (stereo partly drawn) [Compound 60], the IC50 with E-selectin is greater than 4 mM; in the assay on L-selectin it was 4 mM; in the assay with P-selectin [1], greater than 2 mM.

As to `C[C@@H]1O[C@@H](CCOc2cccc(C(=O)O)c2)[C@@H](O)[C@H](O)[C@@H]1O` [Compound 69, 1-Deoxy-1-α-(m-Carboxy-Phenoxyethyl)-L-Fucose], the half-maximal inhibitory concentration (IC50) with E-selectin, in the assay with L-selectin and with P-selectin [1] was greater than 4 mM each time.

Turning to `C[C@@H]1O[C@@H](CCOc2ccc3cc(OCC[C@@H]4O[C@@H](C)[C@@H](O)[C@@H](O)[C@@H]4O)c(C(=O)O)cc3c2)[C@@H](O)[C@H](O)[C@@H]1O` [Compound 57, 3,7-Di-(1-Deoxy-1-α-Fucosyl-Ethyleneoxy)-2-Naphthoic Acid], the IC50 with E-selectin is greater than 4 mM; in the assay with L-selectin it was roughly 2 mM; in the assay with P-selectin [1] it was less than 0.5 mM.

Consider `C[C@@H]1O[C@@H](OCCCCCCOS(=O)(=O)O)[C@@H](O)[C@H](O)[C@@H]1O` [Compound 77, 6-O-sulfo-hexanyl-α-L-fucopyranoside], for which the values for the half-maximal inhibitory concentration (IC50) with E-selectin, in the assay with L-selectin and in the assay on P-selectin [1] were 2 to 3 mM, 2 to 3 mM and roughly 0.5 mM, respectively. Also, the “Inhibition (%) of P-selectin-IgG binding to HL-60 cells” value was found to be 50% in the assay on P-selectin [2] (10 (unit uncertain)), 50% in the assay with P-selectin [2] (100 (unit uncertain)) and 60% in the assay with P-selectin [2] (200 (unit uncertain)).

With `C[C@@H]1O[C@@H](CCc2ccc(C(=O)NC(Cc3ccccc3)C(=O)O)cc2)[C@@H](O)[C@H](O)[C@@H]1O` (stereo partly drawn) [Compound 75, 1-Deoxy-1-α-(p-Carboxy-Phenylethyl)-L-Fucose-Phenylalanine Amide], the results for the IC50 with E-selectin, in the assay with L-selectin and in the assay with P-selectin [1] were greater than 4 mM, greater than 4 mM and 4 mM, respectively.

For `C[C@@H]1O[C@@H](CCc2cccc(C(=O)NC(Cc3ccccc3)C(=O)O)c2)[C@@H](O)[C@H](O)[C@@H]1O` (stereo partly drawn) [Compound 74, 1-Deoxy-1-α-(m-Carboxy-Phenylethyl)-L-Fucose-Phenylalanine Amide], the IC50 in the assay with E-selectin, in the assay on L-selectin and with P-selectin [1] was greater than 4 mM throughout.

Turning to `C[C@@H]1O[C@@H](CCOc2cc3c(OCC[C@@H]4O[C@@H](C)[C@@H](O)[C@@H](O)[C@@H]4O)cccc3cc2C(=O)O)[C@@H](O)[C@H](O)[C@@H]1O` [Compound 58, 3,5-Di-(1-Deoxy-1-α-Fucosyl-Ethyleneoxy)-2-Naphthoic Acid], the IC50 with E-selectin is greater than 4 mM; in the assay on L-selectin, roughly 4 mM; in the assay with P-selectin [1] it was 2 mM.

Regarding `CC(=O)N[C@H]1[C@H]([C@H](O)[C@H](O)CO)OC(OCCCCCCOC2O[C@@H](C)[C@@H](O)[C@@H](O)[C@@H]2O)(C(=O)O)C[C@@H]1O` (stereo partly drawn) [Compound 15, O-Hexamethylene linked α,β-NeuNAc and α,β-L-Fucopyranose], in the assay on L-selectin, the “inhibition of L-selectin binding to 2,3 sLe^x glycolipid” value was “blocks L-selectin binding at concentrations lower than 7 and 14”.

As to `CCCOCC(CO[C@@H]1O[C@H](CO)[C@H](O)[C@H](OC(C)C(=O)O)[C@H]1O)O[C@@H]1O[C@@H](C)[C@@H](O)[C@@H](O)[C@@H]1O` (stereo partly drawn) [Compound 32, 1-O-(3-O-α-carboxyethyl-β-D-galactopyranosyl)-2-O-(α-L-fucopyranosyl)-3-O-(n-propyl)-propane], the half-inhibitory concentration (IC50) is 2 mM in the assay on E-selectin and no more than 4 mM with L-selectin.

For `CC(C(=O)OCC1CO1)c1ccc2cc(OCC(O)CO)ccc2c1` (stereo not drawn) [Compound 64], the IC50 in the assay with E-selectin, in the assay on L-selectin and in the assay with P-selectin [1] was greater than 4 mM each time.

Consider `C[C@@H]1O[C@@H](CCc2ccccc2C(=O)NC(Cc2ccccc2)C(=O)O)[C@@H](O)[C@H](O)[C@@H]1O` (stereo partly drawn) [Compound 76, 1-Deoxy-1-α-(o-Carboxy-Phenylethyl)-L-Fucose-Phenylalanine Amide], for which the IC50 in the assay on E-selectin, with L-selectin and in the assay with P-selectin [1] was greater than 4 mM each time.

With `C[C@@H]1O[C@@H](CCOc2ccccc2C(=O)O)[C@@H](O)[C@H](O)[C@@H]1O` [Compound 68, 1-Deoxy-1-α-(o-Carboxy-Phenoxyethyl)-L-Fucose], the IC50 in the assay on E-selectin was roughly 4 mM; in the assay on L-selectin, greater than 4 mM; in the assay with P-selectin [1], less than 0.5 mM.

`CC(=O)N[C@H]1[C@H]([C@H](O)[C@H](O)CO)OC(OCCCCCCOC2O[C@@H](C)[C@@H](O)[C@@H](O)[C@@H]2O)(C(=O)O)C[C@@H]1O` (stereo partly drawn) [Compound 14, O-Hexamethylene linked α,β-NeuNAc and α,β-L-Fucopyranose]: in the assay on E-selectin (FIG. 4, result in words), the “inhibition of E-selectin binding to 2,3 sLe^x glycolipid” value is reported as “inhibit E-selectin binding to 2,3 sLe^x glycolipid”. The “inhibition of L-selectin binding to 2,3 sLe^x glycolipid” value in the assay on L-selectin is recorded as “inhibit L-selectin binding in a concentration dependent manner”.
